Measurements from patent US6620813B1, “Hydroxamate derivatives of non-steroidal anti-inflammatory drugs” (Medinox, Inc., priority 2002, dated 2003).
“Also recorded” adds a separate entry of the source.

Columns and labels:
[1] = tested on: Male Sprague-Dawley rats; assay: Enteropathy model: intestinal erosions and ulcers after oral dosing; settings: diclofenac vs equimolar compound 54, vehicle PEG, FIG. 1
Description: Enteropathy: Male Sprague-Dawley rats (150-174 g) were obtained from Harlan. Animals were allowed to acclimatize to the facility for a minimum of 3 days and provided with food and water ad libitium. […] Drugs were administered orally either as a single dose (late morning) or twice daily between 8:00-10:00 and 4:00-5:00 beginning with a morning dose for a total of three days. Groups contained 6-8 animals per treatment. On the fourth day each rat was injected intravenously with 1 ml of a 10 mg/ml solution of Evan's Blue to stain the damaged blood vessels in intestinal erosions and ulcers. Animals were sacrificed 10 to 20 minutes after administration of Evan's Blue. The small intestine was then removed from each rat and placed in a large weigh boat in cold PBS, stored briefly in a refrigerator until boats were re-coded to blind the observer. Each intestinal segment was then opened longitudinally and, using a fiber optic light, scored for erosions and ulceration according to the following criteria:
After Evan's Blue injection, intestinal lesions are seen as shallow lesions that are moderately stained around the edge, but with little to no staining in the middle. The depth of an erosion is sometimes only detectable when the edge of the tissue is lifted to reflect light at a different angle. Erosions are usually small and round or oval, but are sometimes as much as 1-2 mm wide, and as long as 1-2 cm, running along the area of mesenteric attachment. When erosions are elongated, the length is measured in mm and divided by 2; otherwise, the erosions are merely counted individually. Note that some areas of intestinal tissue stain blue, but are not erosions. These tend to be near the mesenteric membrane attachment sites and may represent areas of increased permeability that have not progressed to the extent that cell loss has occurred.
Ulcers: An ulcer is a deep lesion penetrating the muscularis mucosa. It is usually thickened and inflamed. After Evan's Blue injection, ulcers present several different types of appearance. […] All ulcers are quantified by measuring their long dimensions in mm.

[2] = tested on: Male Lewis rats; assay: Adjuvant-induced arthritis: paw volume; type: in vivo, rat; settings: oral daily on days 8-15, day 15, equimolar doses, FIG. 3
[3] = tested on: Male Sprague-Dawley rats; assay: Gastropathy model: total gastric lesions after a single oral dose; type: in vivo, rat
Description: Rats were fasted for 18 hours prior to the study. […] Drugs were administered orally as a single dose in the morning and water removed. Two and one-half hours after dosing, rats were injected with 1 ml of 10 mg/ml Evans Blue solution and sacrificed 30 minutes later. Stomachs were removed, placed in weigh boats containing cold PBS, and re-coded with letters to blind the observer. Stomachs were then opened along the greater curvature, any contents removed and then placed flat with the lumen facing up to score blue-stained lesions for gastric toxicity according to the following criteria: First, the number of small rounded lesions were counted followed by measurement of total length of linear lesions of greater than or equal to 2 mm. The two numbers obtained (round lesion number and linear length) were added together to give a total gastropathy score expressed as Total Gastric Lesions.

Compound	total length of intestinal ulcers (ulcerogenic effect / ulcer formation) [1]	inhibition of paw volume increase in the uninjected feet (anti-inflammatory activity) [2]	gastric lesion formation compared with Diclofenac ([3]; rat model of gastropathy, equivalent doses)	less gastric lesion (total length) than an equimolar dose of diclofenac ([3]; rats, oral single dose, relative to equimolar diclofenac, FIG. 2)
O=C(O)Cc1ccccc1Nc1c(Cl)cccc1Cl [Diclofenac, diclofenac, reference compound]	substantial ulceration			
Cc1csc(=S)n1OC(=O)Cc1ccccc1Nc1c(Cl)cccc1Cl [Compound 54]	significantly less; also recorded: no ulcerogenic effect	equivalent efficacy to equimolar doses of Diclofenac	significantly less gastric lesion formation	73%
